In ChEMBL document CHEMBL1157712, “Hit to lead account of the discovery of bisbenzamide and related ureidobenzamide inhibitors of Rho kinase” (J Med Chem, 2010):
≈ marks a conversion by molar mass, not a printed value.

Legend:
[1] = molecular target: T1, Rho-associated protein kinase 2 (Homo sapiens, UniProt O75116)
Description: (§1) Inhibition of human ROCK2 by homogenous luciferase assay

[2] = Permeability from apical to basolateral side in human Caco-2 cells; format: ADME, cell-based; settings: Caco-2, read-out: permeability
[3] = Permeability from basolateral to apical side in human Caco-2 cells; format: ADME, cell-based; settings: read-out: permeability
[4] = Metabolic stability in human liver microsomes assessed as half life; format: ADME, Microsome
Cytochrome P450 1A2 [5] = molecular target: T2, Cytochrome P450 1A2 (Homo sapiens, UniProt P05177); experiment: Inhibition of human CYP1A2 by fluorescence assay; format: ADME
T2 sequence (P05177 whole entry): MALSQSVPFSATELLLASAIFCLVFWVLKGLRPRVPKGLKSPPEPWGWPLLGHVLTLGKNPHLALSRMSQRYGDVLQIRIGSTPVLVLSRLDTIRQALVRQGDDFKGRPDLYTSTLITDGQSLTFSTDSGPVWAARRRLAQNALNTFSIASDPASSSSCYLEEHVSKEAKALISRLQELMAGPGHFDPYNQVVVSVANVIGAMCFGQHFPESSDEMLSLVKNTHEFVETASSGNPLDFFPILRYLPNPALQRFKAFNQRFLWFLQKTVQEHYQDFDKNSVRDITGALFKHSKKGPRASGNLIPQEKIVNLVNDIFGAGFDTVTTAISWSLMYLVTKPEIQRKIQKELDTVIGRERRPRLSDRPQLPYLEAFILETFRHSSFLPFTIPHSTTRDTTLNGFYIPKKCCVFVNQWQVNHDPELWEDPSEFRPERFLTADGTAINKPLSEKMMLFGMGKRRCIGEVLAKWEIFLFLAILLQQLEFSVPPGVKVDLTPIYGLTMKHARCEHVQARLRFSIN

Cytochrome P450 2C9 [6] = molecular target: T3, Cytochrome P450 2C9 (Homo sapiens, UniProt P11712); experiment: Inhibition of human CYP2C9 by fluorescence assay; format: ADME
T3 sequence (P11712 whole entry): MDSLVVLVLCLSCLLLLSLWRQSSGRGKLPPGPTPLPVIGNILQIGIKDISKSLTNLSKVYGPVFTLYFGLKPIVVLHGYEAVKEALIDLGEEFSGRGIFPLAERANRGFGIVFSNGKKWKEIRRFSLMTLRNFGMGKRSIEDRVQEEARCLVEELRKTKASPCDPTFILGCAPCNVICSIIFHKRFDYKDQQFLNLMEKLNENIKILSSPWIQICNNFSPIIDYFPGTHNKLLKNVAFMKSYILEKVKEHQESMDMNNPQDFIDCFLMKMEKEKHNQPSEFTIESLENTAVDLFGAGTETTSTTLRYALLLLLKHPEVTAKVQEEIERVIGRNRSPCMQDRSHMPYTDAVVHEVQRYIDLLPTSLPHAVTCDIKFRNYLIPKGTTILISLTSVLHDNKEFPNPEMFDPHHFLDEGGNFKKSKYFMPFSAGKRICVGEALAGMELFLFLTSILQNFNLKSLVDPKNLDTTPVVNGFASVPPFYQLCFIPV

Cytochrome P450 2C19 = Cytochrome P450 2C19 (Homo sapiens, UniProt P33261); experiment: Inhibition of human CYP2C19 by fluorescence assay; format: ADME
Cytochrome P450 2D6 [7] = molecular target: T4, Cytochrome P450 2D6 (Homo sapiens, UniProt P10635); experiment: Inhibition of human CYP2D6 by fluorescence assay; format: ADME
[8] = molecular target: T5, Protein kinase C epsilon type (Homo sapiens, UniProt Q02156); experiment: Inhibition of PKCepsilon
T5 sequence (Q02156 whole entry): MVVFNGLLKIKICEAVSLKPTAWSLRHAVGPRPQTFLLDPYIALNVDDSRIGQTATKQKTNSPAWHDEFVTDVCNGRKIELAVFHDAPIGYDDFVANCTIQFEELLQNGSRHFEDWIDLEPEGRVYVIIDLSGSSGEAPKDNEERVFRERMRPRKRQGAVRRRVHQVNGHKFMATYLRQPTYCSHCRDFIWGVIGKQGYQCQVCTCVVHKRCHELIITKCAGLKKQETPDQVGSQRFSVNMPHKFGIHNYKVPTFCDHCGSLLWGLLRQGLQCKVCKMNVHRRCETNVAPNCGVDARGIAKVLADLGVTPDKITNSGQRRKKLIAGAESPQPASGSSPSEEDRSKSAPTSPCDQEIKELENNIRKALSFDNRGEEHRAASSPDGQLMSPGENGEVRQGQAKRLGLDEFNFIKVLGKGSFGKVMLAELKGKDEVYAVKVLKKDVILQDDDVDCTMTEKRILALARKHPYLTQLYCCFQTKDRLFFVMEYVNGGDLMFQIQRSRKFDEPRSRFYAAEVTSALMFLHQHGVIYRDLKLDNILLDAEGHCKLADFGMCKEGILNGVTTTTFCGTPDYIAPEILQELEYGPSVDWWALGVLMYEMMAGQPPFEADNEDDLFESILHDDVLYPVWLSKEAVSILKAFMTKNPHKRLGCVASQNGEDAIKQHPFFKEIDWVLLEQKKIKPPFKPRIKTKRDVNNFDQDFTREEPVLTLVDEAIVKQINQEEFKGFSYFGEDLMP

[9] = molecular target: T1, Rho-associated protein kinase 2; experiment: Inhibition of human ROCK2 by IMAP assay
[10] = Solubility at pH 7.4; format: physicochemical; settings: buffer
Cytochrome P450 3A4 [11] = molecular target: T6, Cytochrome P450 3A4 (Homo sapiens, UniProt P08684); experiment: Inhibition of human CYP3A4 using BFC substrate by fluorescence assay; format: ADME
T6 sequence (P08684 whole entry): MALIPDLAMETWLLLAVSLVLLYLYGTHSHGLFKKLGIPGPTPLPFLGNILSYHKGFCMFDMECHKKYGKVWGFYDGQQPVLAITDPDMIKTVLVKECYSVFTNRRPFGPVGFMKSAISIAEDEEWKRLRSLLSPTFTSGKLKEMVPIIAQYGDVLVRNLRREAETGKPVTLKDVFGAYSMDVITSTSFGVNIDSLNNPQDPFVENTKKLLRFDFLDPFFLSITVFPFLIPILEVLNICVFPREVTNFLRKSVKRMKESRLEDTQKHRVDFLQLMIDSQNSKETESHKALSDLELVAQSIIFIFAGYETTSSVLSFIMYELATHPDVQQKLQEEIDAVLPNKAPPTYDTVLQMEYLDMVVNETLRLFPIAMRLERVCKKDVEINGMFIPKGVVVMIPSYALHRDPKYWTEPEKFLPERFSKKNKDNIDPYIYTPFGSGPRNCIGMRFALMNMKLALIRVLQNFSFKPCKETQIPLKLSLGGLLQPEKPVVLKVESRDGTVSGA

Cytochrome P450 3A4 [12] = molecular target: T6, Cytochrome P450 3A4; experiment: Inhibition of human CYP3A4 using BQ substrate by fluorescence assay; format: ADME
[13] = molecular target: Serine/threonine-protein kinase N2 (Homo sapiens, UniProt Q16513)
Serine/threonine-protein kinase N2, sequence (Q16513 whole entry): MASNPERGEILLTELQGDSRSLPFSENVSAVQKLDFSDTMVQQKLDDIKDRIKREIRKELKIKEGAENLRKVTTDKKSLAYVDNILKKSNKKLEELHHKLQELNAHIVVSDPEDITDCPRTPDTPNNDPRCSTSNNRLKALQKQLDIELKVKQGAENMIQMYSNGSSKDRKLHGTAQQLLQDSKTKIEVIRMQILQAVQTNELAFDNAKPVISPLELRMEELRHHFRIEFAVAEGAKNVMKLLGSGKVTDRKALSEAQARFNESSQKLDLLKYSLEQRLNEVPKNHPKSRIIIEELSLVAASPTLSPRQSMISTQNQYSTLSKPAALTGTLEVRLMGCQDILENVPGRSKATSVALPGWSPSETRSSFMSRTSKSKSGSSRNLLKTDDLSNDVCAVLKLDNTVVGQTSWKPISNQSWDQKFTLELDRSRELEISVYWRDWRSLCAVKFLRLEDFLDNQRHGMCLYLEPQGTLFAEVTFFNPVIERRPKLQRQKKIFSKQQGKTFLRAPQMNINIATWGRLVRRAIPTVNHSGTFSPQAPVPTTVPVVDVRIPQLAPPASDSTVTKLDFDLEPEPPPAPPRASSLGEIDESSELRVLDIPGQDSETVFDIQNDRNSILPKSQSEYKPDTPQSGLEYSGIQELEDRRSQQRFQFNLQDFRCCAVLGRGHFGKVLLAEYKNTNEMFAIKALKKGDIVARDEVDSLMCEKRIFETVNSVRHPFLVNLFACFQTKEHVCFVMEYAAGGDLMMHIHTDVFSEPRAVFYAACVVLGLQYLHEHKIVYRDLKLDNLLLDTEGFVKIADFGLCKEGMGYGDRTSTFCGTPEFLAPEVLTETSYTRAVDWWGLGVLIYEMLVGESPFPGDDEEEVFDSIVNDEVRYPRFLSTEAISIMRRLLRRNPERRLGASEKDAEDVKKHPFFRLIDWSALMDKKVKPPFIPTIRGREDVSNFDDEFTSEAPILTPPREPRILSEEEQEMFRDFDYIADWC

[14] = molecular target: Serine/threonine-protein kinase MRCK beta (Homo sapiens) (UniProt Q9Y5S2); experiment: Inhibition of CDC42BPB
Serine/threonine-protein kinase MRCK beta (Homo sapiens), sequence (Q9Y5S2 whole entry, looked up): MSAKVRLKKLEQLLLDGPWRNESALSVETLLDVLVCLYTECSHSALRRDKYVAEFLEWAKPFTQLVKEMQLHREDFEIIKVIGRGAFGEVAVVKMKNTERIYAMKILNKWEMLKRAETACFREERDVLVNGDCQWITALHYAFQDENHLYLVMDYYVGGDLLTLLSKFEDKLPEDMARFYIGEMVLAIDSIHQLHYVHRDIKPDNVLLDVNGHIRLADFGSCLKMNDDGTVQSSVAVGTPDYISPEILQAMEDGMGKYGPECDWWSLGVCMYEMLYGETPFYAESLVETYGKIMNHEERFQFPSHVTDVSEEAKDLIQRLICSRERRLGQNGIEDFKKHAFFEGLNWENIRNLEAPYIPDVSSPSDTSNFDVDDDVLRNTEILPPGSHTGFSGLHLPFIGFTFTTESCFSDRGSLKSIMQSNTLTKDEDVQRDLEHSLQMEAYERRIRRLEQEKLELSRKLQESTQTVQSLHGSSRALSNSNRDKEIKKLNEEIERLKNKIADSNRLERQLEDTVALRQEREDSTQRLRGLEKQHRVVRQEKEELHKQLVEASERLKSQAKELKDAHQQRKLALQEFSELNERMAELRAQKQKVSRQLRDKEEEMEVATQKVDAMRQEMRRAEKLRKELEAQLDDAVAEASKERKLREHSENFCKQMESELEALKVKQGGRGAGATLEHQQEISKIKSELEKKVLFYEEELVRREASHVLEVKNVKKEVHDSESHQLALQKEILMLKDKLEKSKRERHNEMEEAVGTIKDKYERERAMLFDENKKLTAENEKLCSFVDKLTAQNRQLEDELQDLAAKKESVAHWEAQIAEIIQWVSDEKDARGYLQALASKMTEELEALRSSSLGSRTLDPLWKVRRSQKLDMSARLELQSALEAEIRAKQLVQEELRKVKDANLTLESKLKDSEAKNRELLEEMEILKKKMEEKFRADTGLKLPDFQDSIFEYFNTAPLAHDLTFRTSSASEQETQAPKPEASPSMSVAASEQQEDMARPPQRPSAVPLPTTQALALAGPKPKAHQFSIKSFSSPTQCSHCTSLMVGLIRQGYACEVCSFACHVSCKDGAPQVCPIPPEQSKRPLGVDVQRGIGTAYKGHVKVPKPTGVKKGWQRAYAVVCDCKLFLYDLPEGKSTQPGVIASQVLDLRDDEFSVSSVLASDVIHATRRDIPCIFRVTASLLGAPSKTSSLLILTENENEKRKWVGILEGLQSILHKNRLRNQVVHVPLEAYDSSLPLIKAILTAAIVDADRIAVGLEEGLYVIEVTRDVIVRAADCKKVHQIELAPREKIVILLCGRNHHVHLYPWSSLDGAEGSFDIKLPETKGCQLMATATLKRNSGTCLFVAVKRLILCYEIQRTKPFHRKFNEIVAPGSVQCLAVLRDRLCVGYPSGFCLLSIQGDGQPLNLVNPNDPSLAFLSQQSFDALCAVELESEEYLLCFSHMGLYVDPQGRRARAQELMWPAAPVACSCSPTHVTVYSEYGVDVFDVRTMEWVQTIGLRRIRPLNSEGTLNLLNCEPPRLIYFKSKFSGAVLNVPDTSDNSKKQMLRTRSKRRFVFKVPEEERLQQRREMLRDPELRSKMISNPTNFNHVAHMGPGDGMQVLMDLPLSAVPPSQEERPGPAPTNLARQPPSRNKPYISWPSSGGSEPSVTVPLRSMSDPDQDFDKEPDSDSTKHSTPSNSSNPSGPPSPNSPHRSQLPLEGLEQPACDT

[15] = molecular target: T1, Rho-associated protein kinase 2; remark: listed apart in the source
Description: as §1

ROCK1 (Homo sapiens) = experiment: Inhibition of ROCK1
Rattus norvegicus = organism: Rattus norvegicus; experiment: Induction of relaxation activity of phenylephrine-induced Sprague-Dawley rat aortic ring contraction; format: functional; settings: Aorta
[16] = Membrane permeability by PAMPA assay; format: ADME; settings: read-out: permeability
Cytochrome P450 1A2 [17] = molecular target: T2, Cytochrome P450 1A2; experiment: Inhibition of human CYP1A2 by LCMS/MS assay; format: ADME
Cytochrome P450 2C9 [18] = molecular target: T3, Cytochrome P450 2C9; experiment: Inhibition of human CYP2C9 by LCMS/MS assay; format: ADME
Cytochrome P450 2D6 [19] = molecular target: T4, Cytochrome P450 2D6; experiment: Inhibition of human CYP2D6 by LCMS/MS assay; format: ADME
Cytochrome P450 3A4 [20] = molecular target: T6, Cytochrome P450 3A4; experiment: Inhibition of human CYP3A4 by LCMS/MS assay; format: ADME

T1 sequence (O75116 whole entry): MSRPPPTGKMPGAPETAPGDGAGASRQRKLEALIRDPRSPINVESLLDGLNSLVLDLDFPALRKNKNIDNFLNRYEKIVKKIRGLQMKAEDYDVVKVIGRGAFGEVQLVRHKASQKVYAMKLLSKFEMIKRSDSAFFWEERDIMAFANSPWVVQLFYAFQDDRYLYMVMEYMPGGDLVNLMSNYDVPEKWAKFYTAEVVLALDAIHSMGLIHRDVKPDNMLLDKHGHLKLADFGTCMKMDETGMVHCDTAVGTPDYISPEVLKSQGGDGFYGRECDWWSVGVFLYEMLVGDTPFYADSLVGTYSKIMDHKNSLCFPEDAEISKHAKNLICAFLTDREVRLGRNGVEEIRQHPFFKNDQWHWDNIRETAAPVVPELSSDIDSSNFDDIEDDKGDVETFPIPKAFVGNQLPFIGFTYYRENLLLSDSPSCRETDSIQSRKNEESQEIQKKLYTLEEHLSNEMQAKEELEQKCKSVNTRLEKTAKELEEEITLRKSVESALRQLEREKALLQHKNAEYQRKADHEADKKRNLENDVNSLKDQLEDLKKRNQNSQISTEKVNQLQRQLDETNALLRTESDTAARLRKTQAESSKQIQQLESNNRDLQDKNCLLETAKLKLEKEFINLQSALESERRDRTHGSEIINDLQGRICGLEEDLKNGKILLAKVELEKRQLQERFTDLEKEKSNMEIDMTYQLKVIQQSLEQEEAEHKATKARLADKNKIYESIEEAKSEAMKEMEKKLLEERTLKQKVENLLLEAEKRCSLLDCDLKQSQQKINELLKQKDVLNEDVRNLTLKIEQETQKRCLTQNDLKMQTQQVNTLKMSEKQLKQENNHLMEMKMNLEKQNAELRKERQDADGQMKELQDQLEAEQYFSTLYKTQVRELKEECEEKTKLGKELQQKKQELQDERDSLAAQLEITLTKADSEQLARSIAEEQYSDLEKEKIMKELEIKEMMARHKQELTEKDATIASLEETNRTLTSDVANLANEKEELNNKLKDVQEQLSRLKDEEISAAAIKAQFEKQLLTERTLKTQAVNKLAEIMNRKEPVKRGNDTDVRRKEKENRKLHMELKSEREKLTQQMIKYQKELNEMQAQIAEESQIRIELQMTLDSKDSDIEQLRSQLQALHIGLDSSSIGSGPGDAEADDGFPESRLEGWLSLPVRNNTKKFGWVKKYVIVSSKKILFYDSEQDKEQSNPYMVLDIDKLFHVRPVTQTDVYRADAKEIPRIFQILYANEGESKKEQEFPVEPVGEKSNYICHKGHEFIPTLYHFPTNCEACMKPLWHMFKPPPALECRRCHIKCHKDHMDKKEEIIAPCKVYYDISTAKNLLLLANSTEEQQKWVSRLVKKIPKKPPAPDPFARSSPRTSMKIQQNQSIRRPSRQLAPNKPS

COc1ccc(C(=O)NCc2cccc(C(=O)NCCc3ccncc3)c2)cc1
IC50 [1]: > 7000 µM

COc1ccc(C(=O)NCc2cccc(C(=O)NCCC3CCCNC3)c2)cc1OC (stereo not given)
Papp A→B [2]: 0.1 ×10⁻⁶ cm/s | Papp B→A [3]: 0.8 ×10⁻⁶ cm/s | half-life [4]: 2.32 h | IC50 (Cytochrome P450 1A2 [5]): > 30 µM | IC50 (Cytochrome P450 2C9 [6]): > 30 µM | IC50 (Cytochrome P450 2C19): > 30 µM | IC50 (Cytochrome P450 2D6 [7]): > 30 µM | IC50 [8]: > 5 µM | IC50 [9]: 0.14 µM | solubility [10]: 16 µg/mL (≈ 37.6 µM) | IC50 (Cytochrome P450 3A4 [11]): > 30 µM | IC50 (Cytochrome P450 3A4 [12]): > 30 µM | IC50 [13]: 4.4 µM | IC50 [1]: 0.053 µM | IC50 [14]: > 5 µM

N#Cc1ccc(NC(=O)NCc2cccc(NC(=O)CCC3CCCNC3)c2)cc1 (stereo not given)
IC50 [15]: 110 µM

COc1ccc(C(=O)NCc2cccc(C(=O)NCCC3CCCN(C)C3)c2)cc1OC (stereo not given)
IC50 [15]: 102 µM

COc1cccc(C(=O)NCc2cccc(C(=O)NCCc3ccncc3)c2)c1
IC50 [1]: > 7000 µM

COc1ccc(C(=O)NCc2cccc(NC(=O)CCC3CCCNC3)c2)cc1OC (stereo not given)
IC50 [8]: > 5 µM | IC50 [13]: > 5 µM | IC50 [1]: 0.073 µM | IC50 (ROCK1 (Homo sapiens)): 0.19 µM | IC50 [14]: > 5 µM

CN(C)Cc1ccc(NC(=O)c2cccc(CNC(=O)c3ccc(C#N)cc3)c2)cc1
IC50 [9]: > 6.5 µM

COc1ccc(C(=O)Nc2cccc(C(=O)NCCC3CCCNC3)c2)cc1OC (stereo not given)
IC50 [1]: > 6000 µM

N#Cc1cccc(NC(=O)NCc2cccc(C(=O)NCCC3CCCNC3)c2)c1 (stereo not given)
IC50 [8]: > 5 µM | IC50 [13]: > 5 µM | IC50 [1]: 0.089 µM | IC50 [14]: > 5 µM

COc1ccc(C(=O)NCc2cccc(C(=O)Nc3ccc4c(c3)CCNC4)c2)cc1OC
IC50 [9]: 0.32 µM | IC50 [15]: 100 µM

CCCNC(=O)c1cccc(CNC(=O)c2ccc(OC)c(OC)c2)c1
IC50 [1]: 5 µM

COc1ccc(NC(=O)Nc2cccc(C(=O)NCCC3CCCNC3)c2)cc1OC (stereo not given)
IC50 [1]: > 7000 µM

COc1ccc(CNC(=O)c2cccc(C(=O)NCCC3CCCNC3)c2)cc1OC (stereo not given)
IC50 [1]: > 6000 µM

O=S(=O)(c1cccc2cnccc12)N1CCCNCC1 [FASUDIL]
IC50 (Rattus norvegicus): 6.1 µM

COc1ccc(S(=O)(=O)NCc2cccc(C(=O)NCCC3CCCNC3)c2)cc1OC (stereo not given)
IC50 [1]: > 6000 µM

Cc1ccc(C(=O)NCc2cccc(C(=O)NCCc3ccncc3)c2)cc1C
IC50 [1]: > 7000 µM

N#Cc1cccc(NC(=O)NCc2cccc(C(=O)NCCc3ccncc3)c2)c1
IC50 [1]: 5.5 µM

N#Cc1ccc(NC(=O)NCc2cccc(C(=O)Nc3ccc(CN)cc3)c2)cc1
IC50 [9]: 0.21 µM | IC50 [15]: 70 µM

COc1cccc(C(=O)NCc2cccc(C(=O)Nc3ccc(CN(C)C)cc3)c2)c1
IC50 [9]: > 7 µM | IC50 [1]: > 7 µM

COc1ccc(C(=O)NCc2cccc(C(=O)Nc3ccc(CO)cc3)c2)cc1OC
Papp A→B [2]: 0.6 ×10⁻⁶ cm/s | Papp B→A [3]: 16.1 ×10⁻⁶ cm/s | half-life [4]: 0.683 h | Papp [16]: 10 ×10⁻⁶ cm/s | solubility [10]: 48 µg/mL (≈ 114 µM) | IC50 (Cytochrome P450 1A2 [17]): > 30 µM | IC50 (Cytochrome P450 2C9 [18]): > 30 µM | IC50 (Cytochrome P450 2D6 [19]): > 30 µM | IC50 (Cytochrome P450 3A4 [20]): > 30 µM | IC50 [1]: 0.87 µM

CN(C)Cc1ccc(NC(=O)c2cccc(CNC(=O)c3ccc(OC(F)(F)F)c(Cl)c3)c2)cc1
IC50 [9]: 1.3 µM | IC50 [15]: 670 µM
